Series [1] concerns the target T1, COX-2 (Homo sapiens, UniProt P35354).
T1 sequence (P35354 18-604): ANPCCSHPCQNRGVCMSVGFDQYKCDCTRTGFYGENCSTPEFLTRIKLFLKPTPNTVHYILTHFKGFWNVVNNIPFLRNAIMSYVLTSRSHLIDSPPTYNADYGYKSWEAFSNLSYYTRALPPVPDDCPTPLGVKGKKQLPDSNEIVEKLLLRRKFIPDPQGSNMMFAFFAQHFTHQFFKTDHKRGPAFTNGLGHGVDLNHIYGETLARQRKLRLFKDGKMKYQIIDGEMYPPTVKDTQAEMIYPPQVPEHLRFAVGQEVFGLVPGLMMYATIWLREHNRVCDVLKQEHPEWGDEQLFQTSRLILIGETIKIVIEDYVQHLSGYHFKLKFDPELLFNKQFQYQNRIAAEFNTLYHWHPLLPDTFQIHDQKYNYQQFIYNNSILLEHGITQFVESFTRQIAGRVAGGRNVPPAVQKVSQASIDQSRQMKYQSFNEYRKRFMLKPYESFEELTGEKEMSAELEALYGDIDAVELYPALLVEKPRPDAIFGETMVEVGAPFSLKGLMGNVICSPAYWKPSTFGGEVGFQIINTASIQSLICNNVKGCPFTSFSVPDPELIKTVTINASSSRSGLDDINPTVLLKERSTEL
Briefly: biochemical.
Experimental: (§2) One example of an in vitro screening method takes advantage of the fact that both human and murine recombinant COX-2 can be expressed and isolated in pure form from an Sf-9 cell expression system. Briefly, typical assays involve the incubation of COX-1 (44 nM) or COX-2 (66 nM) in a 200 μL reaction mixture containing 100 mM Tris-HCl, pH 8.0, 500 μM phenol and 50 μM ^14C-arachidonic acid (55 mCi/mmol) for 30 seconds at 37° C. […] The reaction is stopped by the addition of 200 μL of ethanol/methanol/1 M citrate, pH 4.0 (30:4:1). The extracted products are separated by thin layer chromatography (TLC), which allows quantitation of total product formation as well as assessment of product distribution. This assay is useful to define IC50 values for inhibition of either enzyme, and to determine time-dependency of inhibition. It also provides information concerning changes in products formed as a result of inhibition.
(§3) Apoenzyme was reconstituted by the addition of hematin to the assay mixtures. Human COX-2 was expressed in Sf9 insect cells by means of the pVL 1393 expression vector (BD Biosciences Pharmingen, San Diego, Calif., United States of America) and purified by ion exchange and gel filtration chromatography. […]
(§4) IC50 values for the inhibition of purified human COX-2 or ovine COX-1 by test compounds were determined by thin layer chromatography (TLC) radiography. […]

The target in series [2] is T2, COX-2 activity in RAW 264.7 murine macrophage cell line (Mus musculus, UniProt Q05769).
T2 construct: The macrophages were exposed to lipopolysaccharide and γ-interferon to induce COX-2; endogenous in cells
T2 sequence (Q05769 18-604): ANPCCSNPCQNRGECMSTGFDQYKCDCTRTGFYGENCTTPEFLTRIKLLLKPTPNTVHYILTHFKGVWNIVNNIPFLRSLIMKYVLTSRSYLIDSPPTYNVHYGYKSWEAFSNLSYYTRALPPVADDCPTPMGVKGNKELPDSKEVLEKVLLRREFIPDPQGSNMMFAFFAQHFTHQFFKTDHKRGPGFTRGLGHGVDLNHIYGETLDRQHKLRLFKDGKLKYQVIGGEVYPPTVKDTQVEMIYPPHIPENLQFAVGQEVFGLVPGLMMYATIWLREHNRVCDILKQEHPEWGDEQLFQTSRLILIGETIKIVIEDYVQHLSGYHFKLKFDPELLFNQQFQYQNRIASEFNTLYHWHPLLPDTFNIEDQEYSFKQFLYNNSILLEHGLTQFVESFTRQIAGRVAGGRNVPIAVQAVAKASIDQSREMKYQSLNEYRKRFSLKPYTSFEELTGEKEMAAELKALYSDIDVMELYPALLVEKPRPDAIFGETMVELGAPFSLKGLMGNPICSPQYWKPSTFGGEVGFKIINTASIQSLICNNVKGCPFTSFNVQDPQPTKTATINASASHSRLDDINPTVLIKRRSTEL
The experiment in a line: Inhibition of COX-2 activity (PGD2 synthesis) in activated RAW264.7 macrophages. The series is classed as cell-based. The source says:
Thus, NSAID derivatives that are identified as potentially useful in the methods described herein can be further tested using, for example, the RAW264.7 murine macrophage cell line. These cells are readily available (for example, from the American Type Culture Collection, Manassas, Va., United States of America) and are easily cultured in large numbers. They normally express low levels of COX-1 and very low to undetectable levels of COX-2. Upon exposure to bacterial lipopolysaccharide (LPS), however, COX-2 levels increase dramatically over the ensuing 24 hour period, and the cells produce PGD2 and PGE2 from endogenous arachidonic acid stores (generally, ˜1 nmol/10^7 cells total PG formation). After LPS exposure, the addition of exogenous arachidonic acid results in the formation of additional PGD2 and PGE2 as a result of metabolism by the newly synthesized COX-2.
This system provides a number of approaches for testing the inhibitory potency of COX-2-selective ligands (e.g., inhibitors). In general, following LPS activation, cells can be treated for 30 minutes with the desired concentrations of candidate derivative(s) in DMSO. ^14C-arachidonic acid can be added, and the cells can be incubated for 15 minutes at 37° C. Product formation can be assessed following extraction and TLC separation of the culture medium. Alternatively, the effects of candidate derivatives on PG synthesis from endogenous arachidonic acid can be assessed by incubating cells with desired concentrations of candidate derivatives 30 minutes prior to LPS exposure. Following a 24 hour incubation, medium can be collected and extracted, and the amount of PGD2 and/or PGE2 can be assayed by gas chromatography-mass spectrometry, liquid chromatography-mass spectrometry, or ELISA.
Inhibition of COX-2 Activity in Activated RAW264.7. Protocols for COX-2 inhibition in RAW264.7 cells have been previously described (Kalgutkar et al., 1998b). Briefly, cells (6.2×10^6 cells/T25 flask) were activated with lipopolysaccharide (1 μg/mL) and γ-interferon (10 U/mL) in serum-free DMEM for 7 hours and then treated with inhibitor (0-2 μM) for 30 minutes at 37° C. Exogenous arachidonate metabolism was determined by adding [1-^14C]-arachidonate acid (20 μM) for 15 minutes at 37° C. IC50 values are the average of two independent determinations.
The macrophages were exposed to lipopolysaccharide and γ-interferon to induce COX-2 and then treated with several concentrations of Compound 355.

Series [3] deals with T3, ovine COX-1 (Ovis aries, UniProt P05979).
T3 sequence (P05979 25-600): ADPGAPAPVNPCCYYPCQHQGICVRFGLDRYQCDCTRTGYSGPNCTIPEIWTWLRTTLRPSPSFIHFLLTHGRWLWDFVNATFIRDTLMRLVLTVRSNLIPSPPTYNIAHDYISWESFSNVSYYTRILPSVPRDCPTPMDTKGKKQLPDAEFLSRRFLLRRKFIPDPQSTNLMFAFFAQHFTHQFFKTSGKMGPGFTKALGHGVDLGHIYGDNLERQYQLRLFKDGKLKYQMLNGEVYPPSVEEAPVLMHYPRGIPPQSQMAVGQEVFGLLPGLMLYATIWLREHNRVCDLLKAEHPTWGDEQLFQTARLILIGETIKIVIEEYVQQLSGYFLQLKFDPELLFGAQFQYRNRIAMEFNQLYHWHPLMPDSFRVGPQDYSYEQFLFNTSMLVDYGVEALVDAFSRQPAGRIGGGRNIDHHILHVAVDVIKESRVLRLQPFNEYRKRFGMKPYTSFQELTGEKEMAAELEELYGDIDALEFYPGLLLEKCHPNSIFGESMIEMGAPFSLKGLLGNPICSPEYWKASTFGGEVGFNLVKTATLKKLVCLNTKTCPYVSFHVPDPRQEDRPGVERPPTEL
The experiment in a line: Inhibition of purified ovine COX-1, TLC assay.
Experimental: as §2, §3, §4

Series [4] deals with rat carageenan footpad edema. Briefly: Rat carageenan footpad edema model. Type of series: in vivo. On the procedure:
The first is the rat carageenan footpad model. Maximal edema is obtained in this model 3 hours after carageenan injection.

Series [5] has as its target T4, COX-1 (Ovis aries, UniProt P05979).
T4 sequence (P05979 25-600): T3 sequence (P05979 25-600)
The settings on record: cited from earlier work.

Series [6] concerns PGE2 in pouch exudate (COX-2 activity). The settings on record: cited from earlier work.
The test system of series [7] is serum thromboxane B2 (COX-1 activity). The settings on record: cited from earlier work.
For series [8], the target named is T4, COX-1. The experiment in a line: Inhibition of COX-1 by NSAID derivatives (species not stated). The series is classed as biochemical. On the procedure:
(§1) While the TLC assay described above provides considerable information, it is labor-intensive for screening large numbers of candidate NSAID derivatives. Accordingly, as an alternative, a simplified assay can be used. Incubation conditions can be essentially as described above, except all candidate derivatives are first screened at a concentration of 1 mM with a preincubation time of 30 minutes. The substrate need not be radiolabeled, and the reaction can be stopped by the addition of 2 μL of formic acid. Product formation can be quantitated by enzyme-linked immunosorbent assay (ELISA) using commercially available kits. […] Other in vitro assay methods for screening NSAID derivatives for activity (e.g., selectivity for the COX-2 enzyme) can also be used by the skilled artisan.

The target of series [9] is T1, COX-2. The experiment in a line: Inhibition of purified COX-2 by NSAID derivatives (species not stated). The series is classed as biochemical. The settings on record: purified COX-2. As to the method: as §1
The target in series [10] is T1, COX-2. The settings on record: cited from earlier work.
Series [11] addresses T2, COX-2 activity in RAW 264.7 murine macrophage cell line. The settings on record: LPS-activated RAW 264.7; exogenous arachidonic acid; read-out: IC50 for inhibition of PGD2 synthesis; cited from earlier work.
Series [12] has as its system gastric lesions. The settings on record: rat, in vivo, 100 mg/kg.
Series [13] has as its target T5, S516A mutant of COX-2 (Homo sapiens, UniProt P35354, S516A).
T5 sequence (P35354 18-604 S516A): T1 sequence (P35354 18-604) with S499A
The settings on record: cited from earlier work.

The subject of series [14] is Sprague-Dawley rats. Briefly: 14-day daily oral toxicity in Sprague-Dawley rats. The series is classed as in vivo. The settings on record: daily oral 100 mg/kg, at 14 days.
For series [15], the system named is HCA-7 colon cancer cells. The settings on record: HCA-7 cells, express high levels of COX-2; read-out: IC50 growth in soft agar; cited from earlier work.
The subject of series [16] is HCT-15 colon cancer cells. The settings on record: HCT-15 cells, do not express COX-2; cited from earlier work.
The mark [17] stands for this setting: activated RAW 264.7 cells, read-out: IC50 for inhibition of PGD2 synthesis/production.
[18] abbreviates: Rattus norvegicus, po, maximal edema 3 hours after carageenan injection, read-out: ED50 inhibition of edema formation.

Where a chain is given by its changes, count along the chain named. Where two headings read alike, the source gives them in different places. Bounds are passed on as bounds.

Consider `COc1ccc2c(c1)c(CC(=O)NCCNC(=O)c1ccc(F)cc1)c(C)n2C(=O)c1ccc(Cl)cc1` [Compound 355, N-(2-{2-[1-(4-Chloro-benzoyl)-5-methoxy-2-methyl-1H-indol-3-yl]-acetylamino}-ethyl)-4-fluoro-benzamide], for which the results for the IC50 in [1], in series [2] (setting [17]) and in series [3] were 103 nM, 500 nM and over 60000 nM, respectively.
For `CC(=O)Oc1ccccc1C(=O)O` [aspirin], in series [4] (setting [18]), the ED50 came out at 125 mg/kg. In [5], the “potency against COX-1 relative to COX-2” value was 10-100 times.
For `COc1ccc2c(c1)c(CC(=O)O)c(C)n2C(=O)c1ccc(Cl)cc1` [indomethacin], the median effective dose (ED50) in series [4] (rat carageenan footpad model (Example 14), read-out: ED50) worked out at 2 mg/kg. The “reduction of PGE2 levels” value in series [6] (2 mg/kg dose) is 100%. Further, the “reduction of TXB2 levels” value in series [7] (2 mg/kg dose) was 90%.
Consider `O=C(c1ccccc1)c1ccc2n1CCC2C(=O)NCc1ccc(F)cc1` (stereo not shown) [Compound 19, p-fluorobenzyl derivative of ketorolac amide], for which the IC50 in series [2] (setting [17]) was 200 nM; in [8] it was over 65000 nM; in series [9], 80 nM.
On to `COc1ccc2c(c1)c(CC(=O)NCCOC(=O)c1cc(I)cc(I)c1I)c(C)n2C(=O)c1ccc(Cl)cc1` [Compound 5], for which the values for the IC50 in [2] (read-out: IC50 for inhibition of COX-2 activity in RAW 264.7 macrophages), in [8] and in series [9] were 3500 nM, over 50000 nM and 50 nM, respectively.
On to `COc1ccc2c(c1)c(CC(=O)Nc1ccc(F)cc1)c(C)n2C(=O)c1ccc(Cl)cc1F` [Compound 360, 2-[1-(4-Chloro-2-fluoro-benzoyl)-5-methoxy-2-methyl-1H-indol-3-yl]-N-(4-fluoro-phenyl)-acetamide], for which the IC50 is 100 nM in series [1] and over 60000 nM in [3].
Regarding `CSc1ccccc1OC(C)=O` [o-(Acetoxyphenyl)methyl sulfide], in series [10], the “inhibitory potency and selectivity for COX-2” value is “moderate”.
Take `CCCCC#CCSc1ccccc1OC(C)=O` [APHS, o-(acetoxyphenyl)hept-2-ynyl sulfide]: the IC50 in [11] is 120 nM. The gastric toxicity entry in series [12] is recorded as “no gastric toxicity”. Moreover, in [13], the “inhibitory effect on S516A mutant of COX-2” value is listed as “resistant”. For the same compound, in [4] (setting [18]), the median effective dose (ED50) was 6 mg/kg. Besides, the “reduction of PGE2 levels in pouch exudate” value in series [6] (dose of 5 mg/kg) is 95%. In addition, the “reduction of pouch PGE2 levels” value in [6] (dose of 50 mg/kg) was 100%. Also, in series [7] (dose of 5 mg/kg), the “effect on serum TXB2 levels” value is “no effect”. The “reduction of serum TXB2 levels” value in series [7] (dose of 50 mg/kg) is 11%. In series [14], the “toxicities by gross or histopathological evaluation” value is “no detectable toxicities”. For the same compound, in series [10], the “selectivity for COX-2 relative to aspirin” value is reported as 100 times and the “time to complete inactivation of COX-2” value is at most 30 min. Also, the kinact/Ki in [10] (irreversible inactivation of COX-2) was about 3000 M⁻¹ s⁻¹. In [15], the IC50 is 2000 nM. Moreover, the effect on growth entry in [16] is “no effect”.

As a reminder, the ED50 is the dose at which the effect has come halfway, by size or by number of responders.

The record behind these values is US20050002859A1, “COX-2-targeted imaging agents” (Vanderbilt University, priority 2003, published 2005).
